Laboratory results from patent US12325726B2, “Organic compounds” (priority 2018, dated 2025).
Like-named read-outs stand apart in the source and are kept apart here.

Columns and labels:
human hepatocyte = assay: In vitro human hepatocyte stability assay; format: in vitro ADME; conditions: human hepatocytes
Method: The compounds of Examples 1, 2, 5 and 6 are compared in a standard in vitro human hepatocyte stability assay run in duplicate. Compounds are provided as 1 M solutions in DMSO, and concentration of test compound is determined at 0.5, 1.0 and 4.0 hours after addition of the test compound. Results are shown below as a percentage of initial concentration.

[1] = In vivo mouse pharmacokinetics, paired oral co-dosing, plasma and brain; design: species or system mice; conditions: for Cmax / Tmax / AUC / concentration at 0.25 hr / concentration at 0.5 hr / concentration at 1 hr / concentration at 2 hr / concentration at 4 hr / concentration at 6 hr / Kp: 10 mg/kg po co-dosed; for AUC: 0.25-6 hr sampling; for Kp: brain/plasma, read-out: B/P AUC Ratio
Method: In a first study, the compounds of Examples 2 to 6 are compared to the Compound of Formula A (Example 1) using standard procedures in mice. In each test, two compounds are co-dosed in a single animal and the relative pharmacokinetics in plasma and brain is determined. Each test compound is dissolved in polyethylene glycol 400 vehicle, and administered orally at a dose of 10 mg/kg. After single dose oral administration of the test compounds together, plasma and brain levels are measured at 0.25, 0.5, 1, 2, 4, and 6 hours post-dosing. The mean values for maximum concentration, time to maximum concentration, and Area Under the Curve (AUC) for both compounds are determined. The results are summarized in the tables below for various paired co-dosing experiments: […]

[2] = brain, read-out: Brain concentration
[3] = plasma, read-out: Plasma concentration

| SMILES | percentage of initial concentration (human hepatocyte; 0 hr) | Cmax ([1]; brain) | Tmax ([1]; brain) | AUC ([1]; brain) | concentration at 0.25 hr [1, 2] | concentration at 0.5 hr [1, 2] | concentration at 1 hr [1, 2] | concentration at 2 hr [1, 2] | concentration at 4 hr [1, 2] | concentration at 6 hr [1, 2] | Kp [1] | Cmax ([1]; plasma) | Tmax ([1]; plasma) | AUC ([1]; plasma) | concentration at 0.25 hr [1, 3] | concentration at 0.5 hr [1, 3] | concentration at 1 hr [1, 3] | concentration at 2 hr [1, 3] | concentration at 4 hr [1, 3] | concentration at 6 hr [1, 3] | other results |
| --- | --- | --- | --- | --- | --- | --- | --- | --- | --- | --- | --- | --- | --- | --- | --- | --- | --- | --- | --- | --- | --- |
| [2H]c1nc([2H])n(CC(=O)[C@H]2CC[C@H]3[C@@H]4CC[C@H]5C[C@@](O)(COC)CC[C@]5(C)[C@H]4CC[C@]23C)c1[2H] [Example 2, 1-((3R,5S,8R,9S,10S,13S,14S,17S)-3-hydroxy-3-(methoxymethyl)-10,13-dimethylhexadecahydro-1H-cyclopenta[a]phenanthren-17-yl)-2-(1H-imidazol-1-yl-d3)ethan-1-one] | 100% | 7600 ng/g | 1 h | 29000 ng·h/mL | 1840 ng/g | 5590 ng/g | 7600 ng/g | 6340 ng/g | 4890 ng/g | 1410 ng/g | 2.8 | 2550 ng/mL | 1 h | 10300 ng·h/mL | 1180 ng/mL | 1740 ng/mL | 2550 ng/mL | 2120 ng/mL | 1760 ng/mL | 774 ng/mL | percentage of initial concentration (human hepatocyte; 0.5 hr): 105%; percentage of initial concentration (human hepatocyte; 1.0 hr): 107%; percentage of initial concentration (human hepatocyte; 4.0 hr): 92%; brain exposure of drug compared to the non-deuterated compound of Example 1 ([1]; 10 mg/kg po): much higher; brain/plasma AUC ratio compared to Example 1 ([1]; 10 mg/kg po): much higher |
| [2H]C([2H])([2H])OC[C@@]1(O)CC[C@@]2(C)[C@@H](CC[C@@H]3[C@@H]2CC[C@]2(C)[C@@H](C(=O)Cn4ccnc4)CC[C@@H]32)C1 [Example 3, 1-((3R,5S,8R,9S,10S,13S,14S,17S)-3-hydroxy-3-((methoxy-d3)methyl)-10,13-dimethylhexadecahydro-1H-cyclopenta[a]phenanthren-17-yl)-2-(1H-imidazol-1-yl)ethan-1-one] |  | 2620 ng/g | 1 h | 13200 ng·h/mL | 2200 ng/g | 2000 ng/g | 2620 ng/g | 2370 ng/g | 2200 ng/g | 1980 ng/g | 1.2 | 2420 ng/mL | 1 h | 11300 ng·h/mL | 2170 ng/mL | 1570 ng/mL | 2420 ng/mL | 2020 ng/mL | 1810 ng/mL | 1720 ng/mL | plasma and brain AUC values and B/P ratio compared to Example 1 ([1]; 10 mg/kg po): similar |
| [2H]c1nc([2H])n(CC(=O)[C@H]2CC[C@H]3[C@@H]4CC[C@H]5C[C@@](O)(COC([2H])([2H])[2H])CC[C@]5(C)[C@H]4CC[C@]23C)c1[2H] [Example 4, 1-((3R,5S,8R,9S,10S,13S,14S,17S)-3-hydroxy-3-((methoxy-d3)methyl)-10,13-dimethylhexadecahydro-1H-cyclopenta[a]phenanthren-17-yl)-2-(1H-imidazol-1-yl-d3)ethan-1-one] |  | 6530 ng/g | 1 h | 25000 ng·h/mL | 1710 ng/g | 5070 ng/g | 6530 ng/g | 5480 ng/g | 4200 ng/g | 1180 ng/g | 2.7 | 2520 ng/mL | 1 h | 9220 ng·h/mL | 896 ng/mL | 1490 ng/mL | 2520 ng/mL | 1950 ng/mL | 1600 ng/mL | 423 ng/mL | brain exposure of drug compared to the non-deuterated compound of Example 1 ([1]; 10 mg/kg po): much higher; brain/plasma AUC ratio compared to Example 1 ([1]; 10 mg/kg po): much higher |
| [2H]C(C(=O)[C@@]1([2H])CC[C@H]2[C@@H]3CC[C@H]4C[C@@](O)(COC([2H])([2H])[2H])CC[C@]4(C)[C@H]3CC[C@@]21C)n1ccnc1 (stereo partly drawn) [Example 5, 1-((3R,5S,8R,9S,10S,13S,14S,17S)-3-hydroxy-3-((methoxy-d3)methyl)-10,13-dimethylhexadecahydro-1H-cyclopenta[a]phenanthren-17-yl-17-d)-2-(1H-imidazol-1-yl)ethan-1-one-2-d] | 100% | 5700 ng/g | 1 h | 23500 ng·h/mL | 3450 ng/g | 5540 ng/g | 5700 ng/g | 5100 ng/g | 3180 ng/g | 2240 ng/g | 2.6 | 2300 ng/mL | 1 h | 8900 ng·h/mL | 1490 ng/mL | 1960 ng/mL | 2300 ng/mL | 1770 ng/mL | 1340 ng/mL | 725 ng/mL | percentage of initial concentration (human hepatocyte; 0.5 hr): 83%; percentage of initial concentration (human hepatocyte; 1.0 hr): 80%; percentage of initial concentration (human hepatocyte; 4.0 hr): 52% |
| [2H]c1nc([2H])n(C([2H])C(=O)[C@@]2([2H])CC[C@H]3[C@@H]4CC[C@H]5C[C@@](O)(COC([2H])([2H])[2H])CC[C@]5(C)[C@H]4CC[C@@]32C)c1[2H] (stereo partly drawn) [Example 6, 1-((3R,5S,8R,9S,10S,13S,14S,17S)-3-hydroxy-3-((methoxy-d3)methyl)-10,13-dimethylhexadecahydro-1H-cyclopenta[a]phenanthren-17-yl-17-d)-2-(1H-imidazol-1-yl-d3)ethan-1-one-2-d] | 100% | 5350 ng/g | 1 h | 22400 ng·h/mL | 3300 ng/g | 5350 ng/g | 5300 ng/g | 4880 ng/g | 3060 ng/g | 2110 ng/g | 2.7 | 2120 ng/mL | 1 h | 8200 ng·h/mL | 1410 ng/mL | 1850 ng/mL | 2120 ng/mL | 1650 ng/mL | 1220 ng/mL | 642 ng/mL | percentage of initial concentration (human hepatocyte; 0.5 hr): 83%; percentage of initial concentration (human hepatocyte; 1.0 hr): 69%; percentage of initial concentration (human hepatocyte; 4.0 hr): 45%; brain exposure of drug compared to the non-deuterated compound of Example 1 ([1]; 10 mg/kg po): much higher; brain/plasma AUC ratio compared to Example 1 ([1]; 10 mg/kg po): much higher |
